Measured values: US8722910B2, “Diyne compositions” (Evolva AG, priority 2009, dated 2014)
In brackets after ≈: the same amount, converted by molar mass.

Experiments:
Candida albicans = assay: Mouse vaginal infection, topical dosing; assay type: in vivo; conditions: mice; topically 0.01% daily for five days
Description: The efficacy of compound III″ in vaginal infections of small mammals has been shown. Mice were vaginally infected with Candida albicans. Compound III″ was administered topically at 0.01% daily for five days. Fungal burden decreased 86% compared to the untreated control (see FIG. 14 showing vaginal fungal burden as determined by colony forming units (CFU) from vaginal lavage fluid).

ergosterol biosynthesis = assay: 13C-acetate incorporation into ergosterol; assay type: cell-based, Candida albicans; conditions: drug at about its MIC, added after the first 15 minutes
Escherichia coli 700 = assay: In vitro Antibacterial Activity; assay type: cell-based
[1] = system: T. rubrum, Terbinafine resistant isolates; assay: In vitro antifungal activity vs. dermatophytes (MIC/MFC); assay type: cell-based
[2] = system: Staphylococcus aureus 29213; assay: In vitro Antibacterial Activity; assay type: cell-based; conditions: read-out: MIC90
[3] = Solubility in water (incremental addition, 50° C.); assay type: physicochemical; conditions: 10 mg, water added up to 50 μl
Description: Solubility in water was determined. This was carried out by transferring 10 mg of the material into 1.5 ml HPLC vials. Then 10 μl (1 vol) of water was added. The sample was then isothermally held at 50° C. with stirring for 30 mins. The process was continued up to 50 μl by 10 μl increments with heating to 50° C. in between.

[4] = In vitro Mammalian Cell Cytotoxicity; assay type: cell-based; conditions: human, HFF cells
OLE1 = OLE1 expression by real time PCR; assay type: cell-based, C. albicans; conditions: 250 ng/ml; 120 min; vs drug free control
Description: Numbers indicate time intervals in minutes. Expression values are normalized to TUB1 and given as multiples of OLE1 expression at 10 minutes in ethanol.
Similarly, the expression of OLE1 in C. albicans was investigated in response to compound IV″. In the presence of 250 ng/ml Compound IV, OLE1 transcript levels were increased 4-fold after 120 min incubation time compared to the drug free control. […] Expression values are normalised to TUB1 and given as multiples of OLE1 expression at 10 minutes in ethanol.

GVS moisture sorption = assay type: physicochemical; conditions: 25° C.
Description: Sorption isotherms were obtained using a Hiden IGASorp moisture sorption analyser, controlled by CFRSorp software. The sample temperature was maintained at 25° C. by a Huber re-circulating water bath. The humidity was controlled by mixing streams of dry and wet nitrogen, with a total flow rate of 250 ml.min-1. The relative humidity (RH) was measured by a calibrated Vaisala RH probe (dynamic range of 0-95% RH), located near the sample. The weight change, (mass relaxation) of the sample as a function of % RH was constantly monitored by the microbalance (accuracy ±0.001 mg). Typically 10-20 mg of sample was placed in a tared mesh stainless steel basket under ambient conditions. The sample was loaded and unloaded at 40% RH and 25° C. (typical
room conditions). A moisture sorption isotherm was performed. The software uses a least squares minimisation procedure together with a model of the mass
relaxation, to predict an asymptotic value. The measured mass relaxation value must be within 5% of that predicted by the software, before the next % RH value is selected. The sample was recovered after completion of the isotherm and re-analysed by XRPD.

Phialophora verrucosa = assay: Susceptibility of clinical isolates (MIC, broth dilution); assay type: cell-based; conditions: Phialophora verrucosa (n = 4)
Description: (§1) The efficacy of compound IV″ was investigated on 563 clinical isolates of 33 human fungal pathogens. […] For species with n≧10, the MIC90 (MIC, minimal inhibitory concentration) is given as ng/ml. For species with n≦10, the MIC range is given as ng/ml. 24 h and 48 h reads are indicated (Table 1).

Fusarium solani = assay: as above; assay type: cell-based; conditions: Fusarium solani (n = 10)
Description: as §1

C. neoformans = assay: as above; assay type: cell-based; conditions: C. neoformans (n = 18)
Description: as §1

Fonsecaea pedrosi = assay: as above; assay type: cell-based; conditions: Fonsecaea pedrosi (n = 4)
Description: as §1

Zygomycetes = assay: as above; assay type: cell-based; conditions: Zygomycetes (n = 20)
Description: as §1

Sporothrix schenckii = assay: as above; assay type: cell-based; conditions: Sporothrix schenckii (n = 10)
Description: as §1

[5] = Aqueous solubility (equilibrated 25° C., 24 hours, HPLC); assay type: physicochemical; conditions: water, thermodynamic from solid
Description: The potassium salt was furthermore submitted to a solubility determination. Aqueous solubility was determined by suspending sufficient compound in water to give a maximum final concentration of ≧100 mg.m1-1 of the parent free-form of the compound. The suspension was equilibrated at 25° C. for 24 hours then the pH was measured. The suspension was then filtered through a glass fibre C filter into a 96 well plate. The filtrate was then diluted by a factor of 101. Quantification was by HPLC with reference to a standard solution of approximately 0.1 mg.ml-1. in DMSO. Different volumes of the standard, diluted and undiluted sample solutions were injected. The solubility was calculated using the peak areas determined by integration of the peak found at the same retention time as the principal peak in the standard injection. Analysis was performed on an Agilent HP1100 series system equipped with a diode array detector and using ChemStation software vB.02.01-SR1.

C. albicans = assay: Mice infected systemically with C. albicans, oral dosing, kidney burden; assay type: in vivo; conditions: orally twice daily for 3 days, vs untreated
Description: Mice were infected systemically with C. albicans. Compound IV″ was administered orally twice daily for 3 days at 5 mg/kg or 10 mg/kg per dose. Kidney fungal burden decreased by 88% and 94% respectively, compared to the untreated control (as shown in FIG. 12 showing kidney fungal burden as determined by colony forming units (CFU) per gram of homogenised tissue).

A. nidulans = assay: Susceptibility of clinical Aspergillus isolates (MIC); assay type: cell-based; conditions: 24 h
Description: as §1
(§2) Susceptibilities were determined according to the CLSI reference method M38-A2.

A. terreus = assay: as above; assay type: cell-based
Description: as §1, §2

A. niger = assay: as above; assay type: cell-based; conditions: 24 h
Description: as §1, §2

A. flavus = assay: as above; assay type: cell-based
Description: as §1, §2

Compound: O=C(O)CCCCCCC/C=C\C#CC#Cc1ccco1 [Compound III″]
- decrease of vaginal fungal burden (CFU, lavage fluid) (Candida albicans): 86%
- net biosynthesis of ergosterol (13C-acetate incorporation) (ergosterol biosynthesis): did not significantly inhibit the net biosynthesis of ergosterol
- MIC90 (Escherichia coli 700): > 200 µg/mL
- MIC90/MIC range 48 h ([1]; T. rubrum, Terbinafine resistant isolates (n = 9), 48 h): <0.06 ng/mL
- MIC ([1]; Trichophyton rubrum, 96 h, T. rubrum (TERB-resistant) (n = 9), 35° C., 4 days): < 0.06 ng/mL
- MFC ([1]; Trichophyton rubrum, T. rubrum (TERB-resistant) (n = 9)): < 0.06 ng/mL
- MIC90 [2]: 50 µg/mL (≈ 176 µM)
- solubility in water [3]: still did not dissolve
- CC50 [4]: 75 µg/mL (≈ 264 µM)

Compound: O=C([O-])CCCCCCC/C=C\C#CC#Cc1ccco1.[K+] [Compound IV″, potassium (Z)-14-(furan-2-yl)tetradeca-9-en-11,13-diynoate]
- increase of OLE1 transcript levels (OLE1): 4 fold
- moisture uptake behaviour (GVS moisture sorption; GVS): takes up very little moisture until it reaches approximately 70-80% RH
- moisture uptake in weight (GVS moisture sorption; at 90% RH): 28%
- MIC90/MIC range 48 h (Phialophora verrucosa): 40 to 640 ng/mL
- MIC90/MIC range 48 h (Fusarium solani): >64 µg/mL
- MIC90/MIC range 48 h (C. neoformans): 2000 ng/mL
- MIC90/MIC range 48 h (Fonsecaea pedrosi): 80 to 2560 ng/mL
- MIC90/MIC range 48 h (Zygomycetes): 16000 ng/mL
- MIC90/MIC range 48 h (Sporothrix schenckii): 32 to 5120 ng/mL
- solubility at 24 h [5]: > 96.5 mg/mL
- decrease of kidney fungal burden (C. albicans; 5 mg/kg per dose): 88%
- decrease of kidney fungal burden (C. albicans; 10 mg/kg per dose): 94%
- MIC50 (A. nidulans): 5.12 µg/mL
- MIC90/MIC range 24 h (A. terreus; A. terreus (n = 5), MIC range): 10 to 20 ng/mL
- MIC50 (A. terreus; Aspergillus terreus, 24 h): 0.01 µg/mL
- MIC50 (A. niger): 2.56 µg/mL
- MIC90/MIC range 48 h (A. flavus; A. flavus (n = 5), MIC range, 48 h): >5120 ng/mL
- MIC50 (A. flavus; Aspergillus flavus, 24 h): > 5.12 µg/mL
